This passage reports IC50 results from patent US6077869A, “Aryl phenylhydrazides as selective COX-2 inhibitors for treatment of inflammation” (Ortho-McNeil Pharmaceutical, Inc., priority 1999, dated 2000).

As usually defined, the IC50 is the point on the concentration scale where inhibition reaches its midpoint. Low values mean greater potency in that assay, high ones weaker potency in that assay.

Each structure is given as a SMILES string.

One assay deals with cyclooxygenase 2 (COX-2). Description: Procedure I: ability of the compounds to inhibit cyclooxygenase 2 (6217/6218). The format is biochemical, Sheep. To be noted: Wh Cell.
A further assay deals with cyclooxygenase 1 (COX-1). The experiment in a line: Procedure II: cyclooxygenase 1 activity (6226). The format is biochemical, Rat. To be noted: RBL-1 cell homogenate supernatant. The protocol:
[Worded in the source for another target; this target is reported under the same test.] Rat basophilic leukemia cells (RBL-1; 5×10^7 viable cells/mL) were disrupted by homogenization on ice (four 20 sec bursts) with a Brinkman polytron. […] The pellet was discarded and the supernatant was saved as the source of enzymes. The supernatant was pre-incubated for five minutes at 37° C. in the presence of 2 mM of CaCl2 and compound or vehicle (1% DMSO). The conversion of AA into products by CO and LO was initiated by adding 10 μL (50 μCi) of 1-^14 C-AA to each tube and incubated at 37° C. for 20 minutes. The reaction was stopped by adjusting the pH of each sample to 3 to 3.5 with 2 M formic acid. Samples were extracted with three volumes of chloroform to isolate the products of 5-LO formed during the reaction. Fractions were dried under nitrogen, then resuspended in 40 μL of chloroform and spotted onto silica gel HL plates.
The plates were developed in A-9 solvent. The dried plates were analyzed using a Bioscan Imaging TLC scanner to determine the percentage of radiolabelled AA converted to 5-HETE (LO product) in each sample. The percentage of inhibition was calculated by:
[1-(5-HETE test)]/5-HETE control×100=% inhibition The IC50 was determined using a curve fit in Cricket Graph (Computer Associated), which provided the equation of the regressed line used in the calculation.

With `O=C(NNc1ccc(Cl)cc1)c1ccc(Cl)cc1` [Example 1], the IC50 is 0.34 µM against cyclooxygenase 2 (COX-2) and over 10 µM against cyclooxygenase 1 (COX-1).
On to `O=C(NNc1ccccc1)c1ccccc1` [Example 2], for which the results for the IC50 at cyclooxygenase 2 (COX-2) and against cyclooxygenase 1 (COX-1) were 10 µM and over 10 µM, respectively.
The like results for `O=C(NNc1ccccc1)c1ccc(Cl)cc1` [Example 3] were, in that order, 0.33 µM and over 10 µM.
On to `Cc1ccc(NNC(=O)c2ccccc2)cc1` [Example 4], for which the IC50 against cyclooxygenase 2 (COX-2) was 0.33 µM; at cyclooxygenase 1 (COX-1) it was over 10 µM.
The like results for `O=C(NNc1ccc(Cl)cc1)c1ccccc1` [Example 5] were, in that order, 0.53 µM and over 10 µM.
`CS(=O)(=O)c1ccc(NNC(=O)c2ccccc2)cc1` [Example 6]: the IC50 against cyclooxygenase 2 (COX-2) and against cyclooxygenase 1 (COX-1) was over 10 µM each time.
Turning to `Cc1ccc(NNC(=O)c2ccc(Cl)cc2)cc1` [Example 7], the results for the IC50 against cyclooxygenase 2 (COX-2) and at cyclooxygenase 1 (COX-1) were 0.01 µM and over 10 µM, respectively.
For `CS(=O)(=O)c1ccc(NNC(=O)c2ccc(Cl)cc2)cc1` [Example 8] the same measures were over 10 µM and over 10 µM.
Turning to `COc1ccc(C(=O)NNc2ccc(Cl)cc2)cc1` [Example 9], the IC50 is 0.47 µM against cyclooxygenase 2 (COX-2) and over 10 µM against cyclooxygenase 1 (COX-1).
Regarding `COc1ccc(NNC(=O)c2ccc(Cl)cc2)cc1` [Example 10], the IC50 against cyclooxygenase 2 (COX-2) was 0.13 µM.
On to `COc1ccc(C(=O)NNc2ccccc2)cc1` [Example 11], for which the IC50 at cyclooxygenase 2 (COX-2) and on cyclooxygenase 1 (COX-1) was over 10 µM each time.
Regarding `COc1ccc(NNC(=O)c2ccccc2)cc1` [Example 12], the half-maximal inhibitory concentration (IC50) is 0.18 µM on cyclooxygenase 2 (COX-2) and over 10 µM on cyclooxygenase 1 (COX-1).
